Test results from PMC8401933 (Molecules, 2021).

Assays:
[1] = target: T1, p38-gamma (Homo sapiens, UniProt P53778); assay: KINOMEscan binding; settings: read-out: Percent Control
T1 construct: purchased Eurofins DiscoverX KINOMEscan

[2] = target: T2, KIT(V559D) (Homo sapiens, UniProt P10721, V559D); assay: KINOMEscan binding; settings: read-out: Percent Control
T2 construct: purchased Eurofins DiscoverX KINOMEscan

[3] = target: T3, FGFR2 (Homo sapiens, UniProt P21802); assay: KINOMEscan binding; settings: read-out: Percent Control
T3 construct: purchased Eurofins DiscoverX KINOMEscan

[4] = target: T4, PRKCH (Homo sapiens, UniProt P24723); assay: KINOMEscan binding; settings: read-out: Percent Control
T4 construct: purchased Eurofins DiscoverX KINOMEscan

[5] = target: T5, PRP4 (Homo sapiens, UniProt Q13523); assay: KINOMEscan binding; settings: read-out: Percent Control
T5 construct: purchased Eurofins DiscoverX KINOMEscan
Protocol: (§1) This platform contains 468 recombinant human kinases (more than 80% coverage) in which 56 disease-relevant mutants are included. The recombinant DNA-tagged kinases were incubated with the probe ligands immobilized to a solid support, and then the level of the captured kinases on the solid support was measured using quantitative PCR.

[6] = target: T6, CDC2L5 (Homo sapiens, UniProt Q14004); assay: KINOMEscan binding; settings: read-out: Percent Control
T6 construct: purchased Eurofins DiscoverX KINOMEscan
Protocol: as §1

[7] = target: T7, PHKG1 (Homo sapiens, UniProt Q16816); assay: KINOMEscan binding; settings: read-out: Percent Control
T7 construct: purchased Eurofins DiscoverX KINOMEscan
T7 sequence (Q16816 whole entry): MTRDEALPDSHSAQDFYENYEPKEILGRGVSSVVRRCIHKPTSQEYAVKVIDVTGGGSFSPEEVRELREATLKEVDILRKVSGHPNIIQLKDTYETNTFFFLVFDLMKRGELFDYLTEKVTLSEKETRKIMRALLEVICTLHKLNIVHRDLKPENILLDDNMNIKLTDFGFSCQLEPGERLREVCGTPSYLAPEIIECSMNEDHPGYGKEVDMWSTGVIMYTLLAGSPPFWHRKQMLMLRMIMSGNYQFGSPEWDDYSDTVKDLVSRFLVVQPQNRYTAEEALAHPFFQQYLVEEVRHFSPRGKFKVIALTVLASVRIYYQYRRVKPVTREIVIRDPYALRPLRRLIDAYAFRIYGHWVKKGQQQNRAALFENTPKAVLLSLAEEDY

[8] = tested on: Pparg and Cebpa genes in 3T3-L1 cells; assay: qRT-PCR of adipogenic genes during differentiation; assay type: cell-based; settings: 3T3-L1 during differentiation; KD025 5 μM, CX-4945 10 μM, Y-27632 10 μM
Protocol: The preadipocyte 3T3-L1 cell line was kindly provided by Dr. Hyun-Sung Park (University of Seoul) and cultured in Dulbecco’s modified Eagle’s medium (DMEM, Sigma-Aldrich) supplied with 10% heat-inactivated newborn calf serum (Invitrogen, CA, USA), 100 units/mL penicillin, and 100 µg/mL streptomycin (Cellgro, VA, USA). The cells were maintained in an incubator at 37 °C and 5% CO2. To initiate differentiation, the cells were incubated for additional days after 100% confluence and then further incubated in a medium containing fetal bovine serum (FBS) and a differentiation cocktail (DMI, 1 μM dexamethasone, 0.5 mM 3-isobutyl-1-methylxanthine, and 5 μg/mL insulin) as previously described. In brief, at day 3, the culture medium was replaced with DMEM/10%FBS containing 5 µg/mL insulin. Then, growth medium was changed every 2 days.
Total RNA was extracted using easy-BLUE (iNtRON Biotechnology, Dajeon, Korea) in accordance with the manufacturer’s protocol. cDNA was synthesized from 2 µg of total RNA using TOPscript^TM Drymix Kit (Enzynomics, Dajeon, Korea). qRT-PCR was performed using TB Green ® Premix Ex Taq^TM II (Tli RNAse H Plus) (TaKaRa, Japan) with Applied Biosystems QuantStudio™ 1 Real-Time PCR System (Thermo Fisher Scientific, Waltham, MA, USA). Gene expression data were normalized based on the use of the same amount of total RNA samples. The relative fold change of gene expression was calculated using the ∆Ct method.

[9] = target: T8, EPHA1 (Homo sapiens, UniProt P21709); assay: KINOMEscan binding; settings: read-out: Percent Control
T8 construct: purchased Eurofins DiscoverX KINOMEscan

[10] = target: T9, MARK3 (Homo sapiens, UniProt P27448); assay: KINOMEscan binding; settings: read-out: Percent Control
T9 construct: purchased Eurofins DiscoverX KINOMEscan
T9 sequence (P27448 whole entry): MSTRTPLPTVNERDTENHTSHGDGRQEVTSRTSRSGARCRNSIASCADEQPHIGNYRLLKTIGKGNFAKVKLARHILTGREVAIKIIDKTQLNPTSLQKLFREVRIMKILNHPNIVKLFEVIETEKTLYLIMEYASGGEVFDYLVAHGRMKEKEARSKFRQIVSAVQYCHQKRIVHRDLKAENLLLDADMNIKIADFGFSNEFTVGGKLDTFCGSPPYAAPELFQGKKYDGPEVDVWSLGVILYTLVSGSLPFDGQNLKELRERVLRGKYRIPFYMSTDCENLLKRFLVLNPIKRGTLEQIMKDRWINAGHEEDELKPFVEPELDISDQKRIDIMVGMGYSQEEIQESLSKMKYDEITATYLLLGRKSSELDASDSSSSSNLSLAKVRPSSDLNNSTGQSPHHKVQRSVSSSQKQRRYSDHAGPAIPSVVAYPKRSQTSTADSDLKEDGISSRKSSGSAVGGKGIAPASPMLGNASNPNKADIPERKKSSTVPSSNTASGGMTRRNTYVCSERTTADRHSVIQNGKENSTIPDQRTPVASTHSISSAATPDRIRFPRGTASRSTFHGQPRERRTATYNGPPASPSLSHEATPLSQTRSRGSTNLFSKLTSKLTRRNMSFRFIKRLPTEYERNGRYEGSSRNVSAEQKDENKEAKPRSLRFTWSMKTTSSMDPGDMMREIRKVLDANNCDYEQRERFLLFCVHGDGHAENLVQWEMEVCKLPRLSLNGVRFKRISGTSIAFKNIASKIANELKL

[11] = target: T10, INSR (Homo sapiens, UniProt P06213); assay: KINOMEscan binding; settings: read-out: Percent Control
T10 construct: purchased Eurofins DiscoverX KINOMEscan

[12] = target: T11, PIP5K2C (Homo sapiens, UniProt Q8TBX8); assay: KINOMEscan binding; settings: read-out: Percent Control
T11 construct: purchased Eurofins DiscoverX KINOMEscan

[13] = target: T12, EPHB2 (Homo sapiens, UniProt P29323); assay: KINOMEscan binding; settings: read-out: Percent Control
T12 construct: purchased Eurofins DiscoverX KINOMEscan

[14] = target: T13, ITK (Homo sapiens, UniProt Q08881); assay: KINOMEscan binding; settings: read-out: Percent Control
T13 construct: purchased Eurofins DiscoverX KINOMEscan
T13 sequence (Q08881 whole entry): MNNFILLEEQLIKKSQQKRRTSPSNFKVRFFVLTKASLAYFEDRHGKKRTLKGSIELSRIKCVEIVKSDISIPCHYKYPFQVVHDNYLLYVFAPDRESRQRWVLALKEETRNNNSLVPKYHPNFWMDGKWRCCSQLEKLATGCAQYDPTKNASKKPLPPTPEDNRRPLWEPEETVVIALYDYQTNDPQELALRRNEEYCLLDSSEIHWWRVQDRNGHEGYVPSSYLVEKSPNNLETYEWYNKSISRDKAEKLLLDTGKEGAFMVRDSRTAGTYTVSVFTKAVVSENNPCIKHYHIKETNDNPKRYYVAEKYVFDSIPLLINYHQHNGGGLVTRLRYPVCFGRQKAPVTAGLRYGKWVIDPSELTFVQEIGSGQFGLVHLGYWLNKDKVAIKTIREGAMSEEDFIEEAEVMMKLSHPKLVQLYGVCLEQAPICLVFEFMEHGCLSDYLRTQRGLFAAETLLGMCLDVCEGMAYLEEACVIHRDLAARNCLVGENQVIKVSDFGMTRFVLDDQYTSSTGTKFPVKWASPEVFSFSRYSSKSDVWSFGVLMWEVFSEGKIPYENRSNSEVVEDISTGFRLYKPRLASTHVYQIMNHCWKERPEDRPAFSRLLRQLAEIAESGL

[15] = target: T14, PIK3C2G (Homo sapiens, UniProt O75747); assay: KINOMEscan binding; settings: read-out: Percent Control
T14 construct: purchased Eurofins DiscoverX KINOMEscan

[16] = target: T15, LOK (Homo sapiens, UniProt O94804); assay: KINOMEscan binding; settings: read-out: Percent Control
T15 construct: purchased Eurofins DiscoverX KINOMEscan

[17] = target: T16, EPHB1 (Homo sapiens, UniProt P54762); assay: KINOMEscan binding; settings: read-out: Percent Control
T16 construct: purchased Eurofins DiscoverX KINOMEscan

[18] = target: T17, ERBB2 (Homo sapiens, UniProt P04626); assay: KINOMEscan binding; settings: read-out: Percent Control
T17 construct: purchased Eurofins DiscoverX KINOMEscan
T17 sequence (P04626 23-1255): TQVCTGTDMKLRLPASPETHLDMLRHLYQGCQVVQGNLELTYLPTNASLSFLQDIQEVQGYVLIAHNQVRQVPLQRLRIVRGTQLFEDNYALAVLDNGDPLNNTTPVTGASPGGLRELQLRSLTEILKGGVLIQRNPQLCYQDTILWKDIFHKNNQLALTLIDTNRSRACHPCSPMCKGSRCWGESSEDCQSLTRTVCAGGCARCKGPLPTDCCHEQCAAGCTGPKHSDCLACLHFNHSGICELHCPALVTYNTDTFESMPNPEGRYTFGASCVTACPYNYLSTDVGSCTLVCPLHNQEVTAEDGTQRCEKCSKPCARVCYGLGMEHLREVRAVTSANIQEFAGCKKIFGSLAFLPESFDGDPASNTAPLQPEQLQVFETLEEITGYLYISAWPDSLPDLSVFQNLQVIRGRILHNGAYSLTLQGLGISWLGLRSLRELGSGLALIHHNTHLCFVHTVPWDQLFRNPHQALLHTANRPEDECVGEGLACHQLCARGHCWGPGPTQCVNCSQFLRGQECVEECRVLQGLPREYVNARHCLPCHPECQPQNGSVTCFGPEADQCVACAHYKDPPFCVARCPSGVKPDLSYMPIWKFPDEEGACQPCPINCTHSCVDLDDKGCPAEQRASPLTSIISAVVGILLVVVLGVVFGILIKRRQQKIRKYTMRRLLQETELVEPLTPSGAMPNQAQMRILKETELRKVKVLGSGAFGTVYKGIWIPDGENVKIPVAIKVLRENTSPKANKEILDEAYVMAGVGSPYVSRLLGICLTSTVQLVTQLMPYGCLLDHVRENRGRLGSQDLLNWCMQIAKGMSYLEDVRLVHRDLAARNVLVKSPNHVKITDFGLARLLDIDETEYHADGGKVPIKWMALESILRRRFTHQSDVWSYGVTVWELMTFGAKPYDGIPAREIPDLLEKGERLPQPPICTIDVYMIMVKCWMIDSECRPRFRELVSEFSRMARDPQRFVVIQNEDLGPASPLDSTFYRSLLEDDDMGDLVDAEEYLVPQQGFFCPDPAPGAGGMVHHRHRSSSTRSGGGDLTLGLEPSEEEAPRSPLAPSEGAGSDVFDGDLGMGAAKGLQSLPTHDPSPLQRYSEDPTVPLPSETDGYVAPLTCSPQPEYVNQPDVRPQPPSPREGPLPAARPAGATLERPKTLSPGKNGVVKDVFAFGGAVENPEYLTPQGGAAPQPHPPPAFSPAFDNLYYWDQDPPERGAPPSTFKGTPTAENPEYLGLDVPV

[19] = target: T18, PFTAIRE2 (Homo sapiens, UniProt Q96Q40); assay: KINOMEscan binding; settings: read-out: Percent Control
T18 construct: purchased Eurofins DiscoverX KINOMEscan

[20] = target: T19, HIPK3 (Homo sapiens, UniProt Q9H422); assay: KINOMEscan binding; settings: read-out: Percent Control
T19 construct: purchased Eurofins DiscoverX KINOMEscan

[21] = target: T20, CSK (Homo sapiens, UniProt P41240); assay: KINOMEscan binding; settings: read-out: Percent Control
T20 construct: purchased Eurofins DiscoverX KINOMEscan
T20 sequence (P41240 whole entry): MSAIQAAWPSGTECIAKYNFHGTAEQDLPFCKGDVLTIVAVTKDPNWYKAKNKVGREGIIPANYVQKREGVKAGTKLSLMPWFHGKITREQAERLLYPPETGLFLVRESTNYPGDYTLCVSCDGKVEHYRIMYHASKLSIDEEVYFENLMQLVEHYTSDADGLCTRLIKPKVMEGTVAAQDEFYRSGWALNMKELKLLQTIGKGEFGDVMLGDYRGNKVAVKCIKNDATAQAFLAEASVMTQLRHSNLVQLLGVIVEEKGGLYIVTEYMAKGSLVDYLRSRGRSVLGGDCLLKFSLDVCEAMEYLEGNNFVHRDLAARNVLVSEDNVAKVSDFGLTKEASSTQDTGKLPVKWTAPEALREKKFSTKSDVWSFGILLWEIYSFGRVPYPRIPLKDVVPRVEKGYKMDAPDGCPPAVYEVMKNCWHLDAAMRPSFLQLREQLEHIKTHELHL

[22] = target: T21, ABL1(M351T)-phosphorylated (Homo sapiens, UniProt P00519, M351T); assay: KINOMEscan binding; settings: read-out: Percent Control
T21 construct: purchased Eurofins DiscoverX KINOMEscan

[23] = target: T22, FGFR4 (Homo sapiens, UniProt P22455); assay: KINOMEscan binding; settings: read-out: Percent Control
T22 construct: purchased Eurofins DiscoverX KINOMEscan

[24] = target: T23, HASPIN (Homo sapiens, UniProt Q8TF76); assay: KINOMEscan binding; settings: read-out: Percent Control
T23 construct: purchased Eurofins DiscoverX KINOMEscan

[25] = target: T24, JNK3 (Homo sapiens, UniProt P53779); assay: KINOMEscan binding; settings: read-out: Percent Control
T24 construct: purchased Eurofins DiscoverX KINOMEscan

[26] = target: T25, MST1R (Homo sapiens, UniProt Q04912); assay: KINOMEscan binding; settings: read-out: Percent Control
T25 construct: purchased Eurofins DiscoverX KINOMEscan

[27] = target: T26, DMPK (Homo sapiens, UniProt Q09013); assay: KINOMEscan binding; settings: read-out: Percent Control
T26 construct: purchased Eurofins DiscoverX KINOMEscan
T26 sequence (Q09013 whole entry): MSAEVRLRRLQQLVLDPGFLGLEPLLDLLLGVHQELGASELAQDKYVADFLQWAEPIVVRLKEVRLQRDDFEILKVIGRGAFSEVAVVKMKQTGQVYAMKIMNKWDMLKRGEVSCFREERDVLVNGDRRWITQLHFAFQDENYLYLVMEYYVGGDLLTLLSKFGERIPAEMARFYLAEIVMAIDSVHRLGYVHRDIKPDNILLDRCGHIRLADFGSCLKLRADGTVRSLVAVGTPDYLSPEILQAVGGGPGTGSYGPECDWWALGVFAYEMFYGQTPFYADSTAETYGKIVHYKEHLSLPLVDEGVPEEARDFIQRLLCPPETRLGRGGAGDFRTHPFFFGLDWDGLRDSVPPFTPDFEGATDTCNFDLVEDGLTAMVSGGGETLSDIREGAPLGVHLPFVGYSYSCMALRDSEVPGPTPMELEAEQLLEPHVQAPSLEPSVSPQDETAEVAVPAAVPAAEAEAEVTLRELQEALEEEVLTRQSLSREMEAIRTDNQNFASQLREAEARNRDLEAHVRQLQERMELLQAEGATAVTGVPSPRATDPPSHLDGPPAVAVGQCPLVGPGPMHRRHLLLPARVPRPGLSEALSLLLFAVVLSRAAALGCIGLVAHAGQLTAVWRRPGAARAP

[28] = target: T27, ICK (Homo sapiens, UniProt Q9UPZ9); assay: KINOMEscan binding; settings: read-out: Percent Control
T27 construct: purchased Eurofins DiscoverX KINOMEscan

[29] = target: T28, MRCKA (Homo sapiens, UniProt Q5VT25); assay: KINOMEscan binding; settings: read-out: Percent Control
T28 construct: purchased Eurofins DiscoverX KINOMEscan

[30] = target: T29, TGFBR2 (Homo sapiens, UniProt P37173); assay: KINOMEscan binding; settings: read-out: Percent Control
T29 construct: purchased Eurofins DiscoverX KINOMEscan
T29 sequence (P37173 23-567): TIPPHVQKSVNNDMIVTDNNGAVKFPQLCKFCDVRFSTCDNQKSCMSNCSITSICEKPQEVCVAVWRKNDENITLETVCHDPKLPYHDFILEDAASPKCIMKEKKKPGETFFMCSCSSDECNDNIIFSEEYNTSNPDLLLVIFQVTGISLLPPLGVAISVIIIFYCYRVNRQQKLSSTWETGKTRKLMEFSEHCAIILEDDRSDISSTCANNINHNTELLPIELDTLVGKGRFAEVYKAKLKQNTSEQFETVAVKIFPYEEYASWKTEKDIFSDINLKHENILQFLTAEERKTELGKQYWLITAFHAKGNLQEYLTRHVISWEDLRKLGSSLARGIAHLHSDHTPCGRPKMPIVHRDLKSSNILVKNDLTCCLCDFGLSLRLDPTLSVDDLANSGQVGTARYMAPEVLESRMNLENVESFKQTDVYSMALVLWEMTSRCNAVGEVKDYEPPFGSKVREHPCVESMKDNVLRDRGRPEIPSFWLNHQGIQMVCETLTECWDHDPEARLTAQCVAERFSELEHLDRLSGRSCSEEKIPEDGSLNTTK

[31] = target: T30, JAK1(JH2domain-pseudokinase) (Homo sapiens, UniProt P23458); assay: KINOMEscan binding; settings: read-out: Percent Control
T30 construct: JAK1(JH2domain-pseudokinase); purchased Eurofins DiscoverX KINOMEscan
T30 sequence (P23458 545-874 limits assumed): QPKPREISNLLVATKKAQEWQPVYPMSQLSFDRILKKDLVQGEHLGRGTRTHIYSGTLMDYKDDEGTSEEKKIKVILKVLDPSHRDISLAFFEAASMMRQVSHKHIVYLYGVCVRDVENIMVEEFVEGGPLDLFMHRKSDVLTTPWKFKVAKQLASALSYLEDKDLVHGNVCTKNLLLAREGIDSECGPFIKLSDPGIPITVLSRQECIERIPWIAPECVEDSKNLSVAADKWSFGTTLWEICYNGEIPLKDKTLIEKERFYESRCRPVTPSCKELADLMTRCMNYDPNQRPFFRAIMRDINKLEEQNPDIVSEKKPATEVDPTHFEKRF

[32] = target: T31, RSK4(Kin.Dom.1-N-terminal) (Homo sapiens, UniProt Q9UK32); assay: KINOMEscan binding; settings: read-out: Percent Control
T31 construct: RSK4(Kin.Dom.1-N-terminal); purchased Eurofins DiscoverX KINOMEscan

SMILES: CC(C)NC(=O)COc1cccc(-c2nc(Nc3ccc4[nH]ncc4c3)c3ccccc3n2)c1 [KD025, 2-(3-(4-((1H-indazol-5-yl)amino)quinazolin-2-yl)phenoxy)-N-isopropylacetamide]
- remaining binding at 10 µM [1]: 60%
- remaining binding at 10 µM [2]: 72%
- remaining binding at 10 µM [3]: 84%
- remaining binding at 10 µM [4]: 96%
- remaining binding at 10 µM [5]: 15%
- remaining binding at 10 µM [6]: 100%
- remaining binding at 10 µM [7]: 87%
- expression of Pparg and Cebpa genes [8]: suppressed
- remaining binding at 10 µM [9]: 88%
- remaining binding at 10 µM [10]: 92%
- remaining binding at 10 µM [11]: 94%
- remaining binding at 10 µM [12]: 71%
- remaining binding at 10 µM [13]: 96%
- remaining binding at 10 µM [14]: 92%
- remaining binding at 10 µM [15]: 58%
- remaining binding at 10 µM [16]: 9.8%
- remaining binding at 10 µM [17]: 98%
- remaining binding at 10 µM [18]: 81%
- remaining binding at 10 µM [19]: 52%
- remaining binding at 10 µM [20]: 100%
- remaining binding at 10 µM [21]: 88%
- remaining binding at 10 µM [22]: 90%
- remaining binding at 10 µM [23]: 91%
- remaining binding at 10 µM [24]: 77%
- remaining binding at 10 µM [25]: 78%
- remaining binding at 10 µM [26]: 71%
- remaining binding at 10 µM [27]: 97%
- remaining binding at 10 µM [28]: 100%
- remaining binding at 10 µM [29]: 57%
- remaining binding at 10 µM [30]: 100%
- remaining binding at 10 µM [31]: 39%
- remaining binding at 10 µM [32]: 93%
